Consider 30 compounds from US20030134859A1 (SANKYO COMPANY, LIMITED, priority 2000, published 2003).

The test system of the test is leptin production. As to the kind of experiment: Enhancing activity for leptin production in adipocytes (ELISA). In kind it is cell-based, rat. The note with it: leptin concentration as % of control group; for activity at 1 µM / activity at 0.001 µM / activity at 0.01 µM / activity at 0.1 µM: Rattus norvegicus, Adipocyte, read-out: Facilitating activity to produce leptin. The method in brief:
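Leptin release, quantified by rat leptin ELISA, expressed as percent of 0.1% DMSO control after 24 h at 37 °C. Cells were floating adipocytes isolated by collagenase digestion of epididymal fat from male 6-week Wistar Imamichi rats; compound tested at 1 nM–1 µM final.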
Background: An ELISA detects its analyte on a solid surface through an enzyme-linked reagent.

Where two headings read alike, the source gives them in different places.

With `N#Cc1cccc(NC(=O)c2cc([N+](=O)[O-])ccc2Cl)c1` [Example 21, N-(3-Cyanophenyl)-(2-chloro-5-nitrophenyl)carboxamide], the activity at 1 µM (24 h, 1 μM) was 130%. For the same compound, the activity at 0.001 µM (24 h, 1 nm) amounted to 116%. Moreover, under “24 h, 10 nm”, the activity at 0.01 µM was found to be 120%. Also, the activity at 0.1 µM (24 h, 100 nm) amounted to 150%.

In the case of `O=C(Nc1cccc([N+](=O)[O-])c1)c1cc([N+](=O)[O-])ccc1Cl` [Example 25, N-(3-Nitrophenyl)-(2-chloro-5-nitrophenyl)carboxamide], the activity at 0.001 µM (1 nm, 24 hr) is 113%. In addition, the activity at 0.01 µM (10 nm, 24 hr) stood at 118%. For the same compound, where the note is “100 nm, 24 hr”, the activity at 0.1 µM amounted to 156%.

Consider `O=C(Nc1cc([N+](=O)[O-])ccc1Cl)c1cc([N+](=O)[O-])ccc1Cl` [Example 28, N-(2-Chloro-5-nitrophenyl)-(2-chloro-5-nitrophenyl)carboxamide], for which the activity at 1 µM (1 μM, 24 hr) is 108%. For the same compound, the activity at 0.1 µM (100 nm, 24 hr) was 120%.

On to `O=C(Nc1cccc(C(=O)N2CCCC2)c1)c1cc([N+](=O)[O-])ccc1Cl` [Example 31], for which the “Facilitating activity to produce leptin” value (100 nm, 24 hr) came out at 116.9%.

Turning to `O=C(Nc1ccncc1)c1cc([N+](=O)[O-])ccc1Cl` [Example 49, N-(4-Pyridyl)-(2-chloro-5-nitrophenyl)carboxamide], for the setting “24 h, 1 μM”, the activity at 1 µM turned out to be 121%. Further, the activity at 0.01 µM (24 h, 10 nm) amounted to 131%. In addition, the activity at 0.1 µM (24 h, 100 nm) is 133%.

As to `O=C(Nc1ccc(NC(=O)c2cc([N+](=O)[O-])ccc2Cl)nc1)c1cc([N+](=O)[O-])ccc1Cl` [Example 64, 2,5-bis(2-Chloro-5-nitrobenzoylamino)pyridine], the activity at 0.001 µM (1 nm, 24 hr) worked out at 110%. Further, under “10 nm, 24 hr”, the activity at 0.01 µM is 112%. Moreover, the activity at 0.1 µM (100 nm, 24 hr) was 119%.

Consider `O=C(Nc1nc2cc(Cl)ccc2o1)c1cc([N+](=O)[O-])ccc1Cl` [Example 75, N-(5-Chlorobenzoxazol-2-yl)-(2-chloro-5-nitrophenyl)carboxamide], for which the activity at 0.1 µM (24 h, 100 nm) came out at 118%.

As for `O=C(Nc1ncc(Br)cn1)c1cc([N+](=O)[O-])ccc1Cl` [Example 77, N-(5-Bromopyrimidin-2-yl)-(2-chloro-5-nitrophenyl)carboxamide], the activity at 1 µM (24 h, 1 μM) stood at 113%. In addition, the activity at 0.001 µM (24 h, 1 nm) came out at 108%. Moreover, for the setting “24 h, 10 nm”, the activity at 0.01 µM came out at 110%. For the same compound, the activity at 0.1 µM (24 h, 100 nm) was determined as 130%.

For `O=C(Nc1nc(Cl)cc(Cl)n1)c1cc([N+](=O)[O-])ccc1Cl` [Example 83, N-(4,6-Dichloropyrimidin-2-yl)-(2-chloro-5-nitrophenyl)carboxamide], the activity at 0.1 µM (24 h, 100 nm) amounted to 126%.

On to `O=C(Nc1ccc(Cl)nn1)c1cc([N+](=O)[O-])ccc1Cl` [Example 89], for which the “Facilitating activity to produce leptin” value (100 nm, 24 hr) is 123.2%.

Turning to `Cc1c(C)c2c(c(C)c1O)C(=O)CC(C)(COc1ccc(NC(=O)c3cc([N+](=O)[O-])ccc3Cl)cc1)O2` (stereo not drawn) [Example 92, N-[4-(6-Hydroxy-2,5,7,8-tetramethyl-4-oxochroman-2-ylmethoxy)phenyl]-(2-chloro-5-nitrophenyl)carboxamide], the activity at 0.1 µM (24 h, 100 nm) was 116%.

Regarding `Cc1nnc(NS(=O)(=O)c2ccc(NC(=O)c3cc([N+](=O)[O-])ccc3Cl)cc2)s1` [Example 101, N-[4-[(5-Methyl-[1,3,4]thiadiazol-2-yl)aminosulfonyl]phenyl]-(2-chloro-5-nitrophenyl)carboxamide], the activity at 1 µM (24 h, 1 μM) was determined as 117%.

With `O=C(Nc1ccc(-c2ccc(NC(=O)c3cc([N+](=O)[O-])ccc3Cl)cc2)cc1)c1ccccc1` [Example 120, N-[4-(4-Benzoylaminophenyl)phenyl]-(2-chloro-5-nitrophenyl)carboxamide], the activity at 1 µM (24 h, 1 μM) was 121%. Further, the activity at 0.001 µM (24 h, 1 nm) is 108%. Moreover, under “24 h, 10 nm”, the activity at 0.01 µM worked out at 110%. In addition, the activity at 0.1 µM (24 h, 100 nm) came out at 119%.

For the compound `Cc1ccc(C(=O)Nc2ccc(NC(=O)c3cc([N+](=O)[O-])ccc3Cl)cc2)cc1` [Example 121, N-[4-(4-Methylbenzoyl)aminophenyl]-(2-chloro-5-nitrophenyl)carboxamide], the activity at 0.1 µM (24 h, 100 nm) was found to be 114%.

Consider `O=C(Nc1ccc(-c2ccc(NC(=O)c3cc([N+](=O)[O-])ccc3Cl)cc2)cc1)c1cccnc1` [Example 124, N-[4-[4-(Pyridin-3-ylcarbonylamino)phenyl]phenyl]-(2-chloro-5-nitrophenyl)carboxamide], for which the activity at 1 µM (24 h, 1 μM) came to 124%. The activity at 0.001 µM (24 h, 1 nm) worked out at 113%. Moreover, the activity at 0.01 µM (24 h, 10 nm) was determined as 113%. Further, the activity at 0.1 µM (24 h, 100 nm) came out at 146%.

Regarding `O=C(Nc1ccc(-c2ccc(NC(=O)c3cc([N+](=O)[O-])ccc3Cl)cc2)cc1)c1ccncc1` [Example 126, N-[4-[4-(Pyridin-4-ylcarbonylamino)phenyl]phenyl]-(2-chloro-5-nitrophenyl)carboxamide], the activity at 1 µM (24 h, 1 μM) is 142%. Besides, the activity at 0.01 µM (24 h, 10 nm) was 109%. In addition, the activity at 0.1 µM (24 h, 100 nm) is 121%.

With `O=C(Nc1ccc(NS(=O)(=O)c2ccccc2)cc1)c1cc([N+](=O)[O-])ccc1Cl` [Example 127, N-(4-Benzenesulfonylaminophenyl)-(2-chloro-5-nitrophenyl)carboxamide], under “24 h, 1 μM”, the activity at 1 µM is 115%.

In the case of `CCS(=O)(=O)Nc1ccc(-c2ccc(NC(=O)c3cc([N+](=O)[O-])ccc3Cl)cc2)cc1` [Example 130, N-[4-(4-Ethanesulfonylaminophenyl)phenyl]-(2-chloro-5-nitrophenyl)carboxamide], the activity at 1 µM (24 h, 1 μM) was determined as 116%. For the same compound, for the setting “24 h, 100 nm”, the activity at 0.1 µM was found to be 123%.

As to `O=C(Nc1cnccn1)c1cc([N+](=O)[O-])ccc1Cl` [Example 140, N-(Pyrazin-2-yl)-(2-chloro-5-nitrophenyl)carboxamide], where the note is “24 h, 100 nm”, the activity at 0.1 µM turned out to be 114%.

As for `Cl.O=C(Nc1ccncc1)c1cc([N+](=O)[O-])ccc1Cl` [Example 146, N-(Pyridin-4-yl)-(2-chloro-5-nitrophenyl)carboxamide Hydrochloride], the activity at 1 µM (24 h, 1 μM) was determined as 126%. The activity at 0.01 µM (24 h, 10 nm) worked out at 112%. For the same compound, the activity at 0.1 µM (24 h, 100 nm) was 138%.

Consider `O=C(Nc1ccc(S(=O)(=O)N2CCCCC2)cc1)c1cc([N+](=O)[O-])ccc1Cl` [Example 151, N-[4-(Piperidyisulfonyl)phenyl]-(2-chloro-5-nitrophenyl)carboxamide], for which the activity at 1 µM (24 h, 1 μM) was found to be 113%. The activity at 0.1 µM (24 h, 100 nm) worked out at 113%.

On to `O=C(Nc1ccc(S(=O)(=O)N2CCOCC2)cc1)c1cc([N+](=O)[O-])ccc1Cl` [Example 153, N-[4-(Morpholin-4-ylsulfonyl)phenyl]-(2-chloro-5-nitrophenyl)carboxamide], for which, under “24 h, 1 μM”, the activity at 1 µM was 113%.

`CC(=O)c1ccc(NC(=O)c2cc([N+](=O)[O-])ccc2Cl)cc1` [Example 155, N-(4-Acetylphenyl)-(2-chloro-5-nitrophenyl)carboxamide]: the activity at 1 µM (24 h, 1 μM) amounted to 114%. Also, the activity at 0.1 µM (24 h, 100 nm) was 130%.

On to `CC(=O)c1cccc(NC(=O)c2cc([N+](=O)[O-])ccc2Cl)c1` [Example 156, N-(3-Acetylphenyl)-(2-chloro-5-nitrophenyl)carboxamide], for which the activity at 1 µM (24 h, 1 μM) was 112%. Also, the activity at 0.1 µM (24 h, 100 nm) was 118%.

For the compound `CC(C)(C)c1cc(NS(=O)(=O)c2cccc(NC(=O)c3cc([N+](=O)[O-])ccc3Cl)c2)cc(C(C)(C)C)c1O` [Example 161, N-[3-[(3,5-di-tert-Butyl-4-hydroxyphenyl)aminosulfonyl]phenyl]-(2-chloro-5-nitrophenyl)carboxamide], the activity at 1 µM (24 h, 1 μM) came to 131%.

In the case of `O=C(Nc1ccc(-n2ccnc2)cc1)c1cc([N+](=O)[O-])ccc1Cl` [Example 174, N-[4-(Imidazol-1-yl)phenyl]-(2-chloro-5-nitrophenyl)carboxamide], the activity at 0.001 µM (24 h, 1 nm) amounted to 118%. Under “24 h, 10 nm”, the activity at 0.01 µM came to 123%. Further, the activity at 0.1 µM (24 h, 100 nm) was 127%.

Consider `O=C(Nc1ccc(-c2ccc(N3CCCCC3)cc2)cc1)c1cc([N+](=O)[O-])ccc1Cl` [Example 177, N-[4-[4-(Piperidin-1-yl)phenyl]phenyl]-(2-chloro-5-nitrophenyl)carboxamide], for which the activity at 1 µM (24 h, 1 μM) worked out at 145%. Where the note is “24 h, 10 nm”, the activity at 0.01 µM is 121%. Besides, the activity at 0.1 µM (24 h, 100 nm) was 134%.

“N-[3-(Pyrrolidinylsulfonyl)phenyl]-(2-chloro-5-nitrophenyl)carboxamide [Example 154]”: the “Facilitating activity to produce leptin” value is 116.9% (1 μM, 24 hr) and 109.5% (100 nm, 24 hr).

As for “N-[4-(4-Methylbenzoylamino)phenyl]phenyl]-(2-chloro-5-nitrophenyl)carboxamide [Example 122]”, the “Facilitating activity to produce leptin” value was 128.5% (1 μM, 24 hr) and 128.5% (100 nm, 24 hr).

For the compound “N-[4-[4-(Pyrrolidin-1-ylamino)phenyl]phenyl]-(2-chloro-5-nitrophenyl)carboxamide [Example 171]”, the “Facilitating activity to produce leptin” value runs as follows: (1 μM, 24 hr) 126.7%; (1 nm, 24 hr) 113.2%; (10 nm, 24 hr) 115.4%; (100 nm, 24 hr) 128.1%.
